≈ marks a conversion by molar mass, not a printed value. Marks after values point to notes of the source that are not given here.
Tests used:
C. albicans ATCC 90028 = test: Antifungal MIC (CO-ADD), C. albicans; format: cell-based; conditions: Candida albicans, ATCC90028, top dose 32 µg/mL
Description: (§1) For the antifungal assay, fungi strains were cultured for 3 days on YPD agar at 30 °C. A yeast suspension of 1 × 10^6 to 5 × 10^6 CFU/mL was prepared from five colonies. These stock suspensions were diluted with a yeast nitrogen base (YNB) (Becton Dickinson, 233520, New South Wales, Australia) broth to a final concentration of 2.5 × 10^3 CFU/mL. […] The plates were covered and incubated at 35 °C for 36 h without shaking. C. albicans MICs were determined by measuring the absorbance at OD530. For C. neoformans, resazurin was added at a 0.006% final concentration to each well and incubated for a further 3 h before the MICs were determined by measuring the absorbance at OD570–600. […] Fluconazole was used as a positive fungal inhibitor standard for C. albicans and C. neoformans. […] The quality control (QC) of the assays was determined by the antimicrobial controls and the Z′-factor (using positive and negative controls).

S. aureus ATCC 25923 = test: MIC, broth dilution, S. aureus; format: cell-based, Staphylococcus aureus; conditions: Staphylococcus aureus, ATCC25923; S. aureus ATCC 25923, 18 h; read-out: MIC Sa
A. baumannii ATCC 19606 = test: MIC, broth microdilution (CO-ADD), A. baumannii; format: cell-based, Acinetobacter baumannii; conditions: Acinetobacter baumannii, ATCC19606, top dose 32 µg/mL
human red blood cells = test: Hemolytic assay; format: cell-based; conditions: 10% hemolytic activity, mean n = 2
Description: Human whole blood was washed three times with three volumes of 0.9% NaCl and then resuspended in the same solution to a concentration of 0.5 × 10^8 cells/mL, as determined by the manual cell count in a Neubauer hemocytometer. The washed cells were then added to the 384-well compound-containing plates for a final volume of 50 μL. After a 10 min shake on a plate shaker, the plates were then incubated for 1 h at 37 °C. After incubation, the plates were centrifuged at 1000× g for 10 min to pellet cells and debris; 25 μL of the supernatant was then transferred to a polystyrene 384-well assay plate. Hemolysis was determined by measuring the supernatant absorbance at […] (OD405). The absorbance was measured using a Tecan M1000 Pro monochromator plate reader. HC10 and HC50 (concentrations at 10% and 50% hemolysis, respectively) were calculated by a curve fitting the inhibition values vs. log (concentration) using a sigmoidal dose–response function with variable fitting values for the top, bottom, and slope.

MRSA ATCC 43300 = test: MIC, broth microdilution (CO-ADD), MRSA; format: cell-based, methicillin-resistant S. aureus; conditions: Staphylococcus aureus; MRSA ATCC 43300; top dose 32 µg/mL; read-out: MIC MRSA
[1] = test system: C. neoformans ATCC 208821; test: Antifungal MIC (CO-ADD), C. neoformans; format: cell-based; conditions: Cryptococcus neoformans, ATCC208821, top dose 32 µg/mL
Description: as §1

[2] = test system: K. pneumoniae ATCC 700603; test: MIC, broth microdilution (CO-ADD), K. pneumoniae; conditions: top dose 32 µg/mL
E. coli ATCC 25922 [3] = test: MIC, broth dilution, E. coli; format: cell-based, Escherichia coli; conditions: Escherichia coli, ATCC25922; E. coli ATCC 25922, 18 h
P. aeruginosa ATCC 27853 [4] = test: MIC, broth dilution, P. aeruginosa; format: cell-based, Pseudomonas aeruginosa; conditions: Pseudomonas aeruginosa, ATCC27853; P. aeruginosa ATCC 27853, 18 h; read-out: MIC Pa
P. aeruginosa ATCC 27853 [5] = test: Doxycycline potentiation against P. aeruginosa; format: cell-based, Pseudomonas aeruginosa; conditions: doxycycline at 2 µg/mL (4.5 µM); for Dox/Pa fold-change (intrinsic MIC / combination MIC): P. aeruginosa ATCC 27853; for Dox/Pa: concentration required to restore doxycycline activity (combination MIC): P. aeruginosa ATCC 27853, mean n = 3
Excerpt: (§2) These measurements were independently repeated in triplicate.

[6] = Cytotoxicity assay (resazurin); format: cell-based; conditions: human, HEK293 cells, mean n = 2
E. coli ATCC 25922 [7] = test: Erythromycin potentiation against E. coli; format: cell-based, Escherichia coli; conditions: erythromycin at 2 µg/mL (2.7 µM); for Erythro/Ec fold-change (intrinsic MIC / combination MIC): E. coli; for Erythro/Ec: concentration required to restore erythromycin activity (combination MIC): mean n = 3
Excerpt: as §2

Structure (SMILES) | MIC (C. albicans ATCC 90028) | MIC (S. aureus ATCC 25923) | MIC (A. baumannii ATCC 19606) | Hemolysis HC10 (human red blood cells) | MIC (MRSA ATCC 43300) | MIC [1] | MIC Kp [2] | MIC (E. coli ATCC 25922 [3]) | MIC (P. aeruginosa ATCC 27853 [4]) | Dox/Pa fold-change (intrinsic MIC / combination MIC) (P. aeruginosa ATCC 27853 [5]) | Dox/Pa: concentration required to restore doxycycline activity (combination MIC) (P. aeruginosa ATCC 27853 [5]) | IC50 at 20 h [6] | Erythro/Ec fold-change (intrinsic MIC / combination MIC) (E. coli ATCC 25922 [7]) | Erythro/Ec: concentration required to restore erythromycin activity (combination MIC) (E. coli ATCC 25922 [7])
O=C(NCCCNCCCCCCCCNCCCNC(=O)c1c[nH]c2ccccc12)c1c[nH]c2ccccc12.O=C(O)C(F)(F)F.O=C(O)C(F)(F)F [Compound 12d] | > 41 µM | 64.7 µM | > 41 µM | >41 µM | ≤ 0.32 µM | ≤ 0.32 µM | >41 µM | 32.4 µM | > 259 µM | > 8 fold | 32.3 µM | > 41 µM |  | 
Cc1ccc2[nH]cc(C(=O)NCCCNCCCCCCCNCCCNC(=O)c3c[nH]c4ccc(C)cc34)c2c1 [Compound 15c] | > 41 µM | 63.5 µM (≈ 35.5 µg/mL) | > 41 µM | >41 µM | ≤ 0.32 µM | ≤ 0.32 µM | >41 µM | 254 µM (≈ 142 µg/mL) | > 254 µM | > 4 fold | 63.5 µM | > 41 µM | 4 fold | 63.5 µM
O=C(NCCCNCCCCCCCNCCCNC(=O)c1c[nH]c2ccccc12)c1c[nH]c2ccccc12.O=C(O)C(F)(F)F.O=C(O)C(F)(F)F [Compound 12c] | > 42 µM | 132 µM | > 42 µM | >42 µM | ≤ 0.33 µM | ≤ 0.33 µM | >42 µM | 65.9 µM | > 263 µM | > 4 fold | 65.9 µM | > 42 µM | 1 fold | 65.9 µM
COc1cccc2c(C(=O)NCCCNCCCCCCCCCCCCNCCCNC(=O)c3c[nH]c4c(OC)cccc34)c[nH]c12.O=C(O)C(F)(F)F.O=C(O)C(F)(F)F [Compound 17f] | 4.5 µM | 7.03 µM | > 36 µM | >36 µM | ≤ 0.28 µM | ≤ 0.28 µM | >36 µM | 28.1 µM | 225 µM | 4 fold | 56.2 µM | > 36 µM | 0.5 fold | 56.2 µM
Cc1ccc2[nH]cc(C(=O)NCCCNCCCCCCCCCCNCCCNC(=O)c3c[nH]c4ccc(C)cc34)c2c1 [Compound 15e] | ≤ 0.3 µM | 3.77 µM (≈ 2.27 µg/mL) | 19.3 µM (≈ 11.6 µg/mL) | >39 µM | ≤ 0.3 µM | ≤ 0.3 µM | >39 µM | 30.2 µM (≈ 18.1 µg/mL) | 60.3 µM (≈ 36.2 µg/mL) | 4 fold | 15.1 µM | > 39 µM | 4 fold | 7.54 µM
COc1ccc2[nH]cc(C(=O)NCCCNCCCCCCNCCCNC(=O)c3c[nH]c4ccc(OC)cc34)c2c1 [Compound 14b] | > 40 µM | 248 µM (≈ 143 µg/mL) | > 40 µM | >40 µM | ≤ 0.31 µM | ≤ 0.31 µM | >40 µM | 248 µM (≈ 143 µg/mL) | > 248 µM | > 8 fold | 31.1 µM | > 40 µM | 4 fold | 62.1 µM
COc1cccc2c(C(=O)NCCCNCCCCCCCCNCCCNC(=O)c3c[nH]c4c(OC)cccc34)c[nH]c12 [Compound 17d] | > 38 µM | 120 µM (≈ 72.6 µg/mL) | > 38 µM | >38 µM | ≤ 0.3 µM | ≤ 0.3 µM | >38 µM | 240 µM (≈ 145 µg/mL) | > 240 µM | > 4 fold | 60.0 µM | > 38 µM | 2 fold | 120 µM
Cc1cccc2c(C(=O)NCCCNCCCCCCCNCCCNC(=O)c3c[nH]c4c(C)cccc34)c[nH]c12 [Compound 18c] | > 41 µM | > 254 µM | > 41 µM | >41 µM | ≤ 0.32 µM | ≤ 0.32 µM | >41 µM | > 254 µM | 254 µM (≈ 142 µg/mL) | 16 fold | 15.9 µM | > 41 µM | 1 fold | > 254 µM
OC(Cn1cncn1)(Cn1cncn1)c1ccc(F)cc1F [Fluconazole, reference compound] | 0.4 µM (≈ 0.123 µg/mL) |  |  |  |  | 26 µM (≈ 7.96 µg/mL) |  |  |  |  |  |  |  | 
O=C(NCCCNCCCCNCCCNC(=O)c1c[nH]c2ccccc12)c1c[nH]c2ccccc12 [Compound 12a] | > 45 µM | 69.8 µM (≈ 34.1 µg/mL) | > 45 µM | >45 µM | 22.3 µM (≈ 10.9 µg/mL) |  | >45 ^j µM | 139 µM (≈ 67.9 µg/mL) | > 279 µM | > 8 fold | 34.9 µM | > 45 µM | 4 fold | 34.9 µM

From publication PMC10967822, “Antimicrobial Indole-3-Carboxamido-Polyamine Conjugates Target Bacterial Membranes and Are Antibiotic Potentiators” (Biomolecules, 2024)
